Reference: US20180036330A1, “NUCLEOTIDE PHOSPHORAMIDATE FORMULATION” (priority 2015, published 2018)
In brackets after ≈: the same amount, converted by molar mass. Where two headings read alike, the source gives them in different places.

Legend:
[1] = tested on: HCV replicon (NS3-NS5B regions of HCV type 1 b) in Huh-7 luc/neo cells; experiment: HCV replicon assay (Huh-Luc, luciferase); format: cell-based; settings: Hepatitis C virus, Huh-7, 72 h, three days incubation, luciferase activity, n>10
Excerpt: The compositions of the invention may be examined for activity in the inhibition of HCV RNA replication in a cellular assay aimed at identifying compounds that inhibit a HCV functional cellular replicating cell line, also known as HCV replicons. A suitable cellular assay is based on a bicistronic expression construct, as described by Lohmann et al. (1999), Science vol. 285 pp. 110-113 with modifications described by Krieger et al. (2001), Journal of Virology 75: 4614-4624, in a multi-target screening strategy.
The assay utilizes the stably transfected cell line Huh-7 luc/neo (hereafter referred to as Huh-Luc). […]
The replicon cells are plated in 384 well plates in the presence of the test and control compounds which are added in various concentrations. Following an incubation of three days, HCV replication is measured by assaying luciferase activity (using standard luciferase assay substrates and reagents and a Perkin Elmer ViewLux™ ultraHTS microplate imager). […] The inhibitory activity of a compound on luciferase activity is monitored on the Huh-Luc cells, enabling a dose-response curve for each test compound. […]

Huh-Luc cell line = experiment: Cell toxicity in the Huh-Luc cell line; format: cell-based
[2] = Solubility of Compound 1 in ethanol; format: physicochemical; settings: for solubility: 99% ethanol, organic solvent or mixture, heated to 50-60° C., transparent syrup, read-out: solubility in ethanol: final concentration fully dissolved
Experimental: 100.43 mg of Compound 1 was weighed into a glass vial. 37 μl of 99% ethanol was added so that final concentration was 2700 mg/ml. The formulation was heated to 50-60° C. during gentle agitation until the drug substance was fully dissolved. A transparent syrup was obtained and the solution remained transparent after cooling and storage at room temperature for more than 48 hours with no visible crystals.
200.26 mg of Compound 1 was weighed into a glass vial. 67 μl of 99% ethanol was added so that final concentration was 3000 mg/ml. The formulation was heated to 50-60° C. during gentle agitation until the drug substance was fully dissolved. A transparent syrup was obtained.

[3] = Basket dissolution test USP method 711 of Compound 1 in hard gelatin capsule (Example 3); format: physicochemical; settings: for Mean % Compound 1 released: n = 2
Experimental: Dissolution test. 350 mg of Compound 1 was filled into a hard gelatin capsule. A basket dissolution test was performed according to USP method 711, at 100 rpm at 37° C., 900 g media, 5 ml sampling after 20, 45, 90 minutes. Samples were analysed by RP-UPLC. […] The lump was very sticky when wet but dried to a hard lump in air.

[4] = solvent not given, context ethanol, cited from earlier work

In the case of `CC(C)OC(=O)[C@H](C)N[P@](=O)(OC[C@H]1O[C@@H](n2ccc(=O)[nH]c2=O)[C@@](F)(Cl)[C@@H]1O)Oc1ccccc1` [Compound 1, (S)-Isopropyl 2-(((S)-(((2R,3R,4S,5R)-4-chloro-5-(2,4-dioxo-3,4-dihydropyrimidin-1(2H)-yl)-4-fluoro-3-hydroxytetrahydrofuran-2-yl)methoxy)(phenoxy)phosphoryl)amino)propanoate], the EC50 [1] is reported as 55 nM, the cell toxicity (Huh-Luc cell line) is reported as greater than 50 µM and the “time solution remained transparent with no visible crystals” value ([2]; 2700 mg/ml in 99% ethanol, after cooling, storage at room temperature) is reported as “more than 48 hours”. The “appearance after cooling and storage at room temperature” value ([2]; 3000 mg/ml in 99% ethanol) was “solidified to a slightly opaque semisolid with no visible crystals”, the solubility ([2]; 100.43 mg in 37 μl 99% ethanol) was 2700 mg/mL (≈ 4910 mM) and the solubility ([2]; 200.26 mg in 67 μl 99% ethanol) was 3000 mg/mL (≈ 5460 mM). For the same compound, the “Mean % Compound 1 released” value ([3]; 0.1M HCl, 20 min, 350 mg in hard gelatin capsule, 37° C., 100 rpm) was 2%, the “Mean % Compound 1 released” value ([3]; 0.1M HCl, 45 min, 350 mg in hard gelatin capsule) was 3% and the “Mean % Compound 1 released” value ([3]; 0.1M HCl, 90 min, 350 mg in hard gelatin capsule) was 5%. The “observation of capsule during dissolution test” value ([3]; 350 mg in hard gelatin capsule, 90 min) was “water insoluble lump that did not dissolve or change much during 90 min”, the “Mean % Compound 1 released” value ([3]; FaSSIF, 20 min, 350 mg in hard gelatin capsule) was 2% and the “Mean % Compound 1 released” value ([3]; FaSSIF, 45 min, 350 mg in hard gelatin capsule) was 5%. For the same compound, the “Mean % Compound 1 released” value ([3]; FaSSIF, 90 min, 350 mg in hard gelatin capsule) was 8% and the “solubility of the lump in 70% EtOH” value ([3]; lump formed from capsule, 70% EtOH) was “surprisingly soluble”.

For `CC(C)OC(=O)[C@H](C)N[P@](=O)(OC[C@H]1O[C@@H](n2ccc(=O)[nH]c2=O)[C@](C)(F)[C@@H]1O)Oc1ccccc1` [sofosbuvir], the published solubility ([4]; Cayman Chemical item no 15402 and Apex BT Catalog no. A3738) is listed as 25 mg/mL and the published solubility ([4]; Selleckchem Catalog no S2794) is listed as 100 mg/mL.
